Test results reported in PMC12040169 (PLOS Biology, 2025).

experiment: in vitro; conditions: human, hela cells, % viability

| Structure (SMILES) | viability at 28.5 h, 10 µM |
| --- | --- |
| CC1CCCCN1CCCNc1cc(NS(=O)(=O)c2cn(C)cn2)cc2ccoc12 (centres unmarked) [CBK067940C] | 94.5% |
| O=C1N=C(NC2CCCCC2)SC1Cc1nc2ccccc2o1 (centres unmarked) [CBK067970] | 96.4% |
| O=S(=O)(c1ccc(Cl)cc1)N1CCN(c2ccccc2)CC1 [CBK067987] | 100% |
| O=C(CSc1nnc(-c2ccccc2O)o1)c1ccc(Cl)cc1 [CBK068032] | 98.4% |
| Cc1ccc(C)c2[nH]c(=O)c(CN(Cc3cccnc3)C(=O)NC3CCCCC3)cc12 [CBK068091] | 98.2% |
| Cc1cccc(-c2nnn(CC(=O)O)n2)c1 [CBK068105] | 102% |
| Cc1ccc(S(=O)(=O)N2CCN(C(=O)c3ccco3)CC2)cc1 [CBK068166] | 92.8% |
| Cc1ccc2nc(SCC(=O)Nc3ccccc3Br)c(C#N)cc2c1 [CBK068169] | 94.4% |
| COc1cccc(-c2nnn(CC(=O)O)n2)c1 [CBK068202] | 94.9% |
| O=C(c1ccco1)N1CCN(C(=O)c2ccco2)CC1 [CBK068272] | 86.4% |
| CCCCOc1ccc(-c2nnn(CC(=O)NCc3ccccc3)n2)cc1 [CBK068557] | 96.8% |
| CCCCOc1ccc(-c2nnn(C(C)C(=O)OCC)n2)cc1 (centres unmarked) [CBK068558] | 88.6% |
| CCn1c(SCC(=O)O)nnc1-c1ccco1 [CBK068633] | 86.8% |
| CCN(CC)CCN(Cc1cc2ccc(C)cc2[nH]c1=O)C(=O)Nc1ccc(Cl)cc1 [CBK068680] | 84.9% |
| COc1ccc2cc(C#N)c(SCC(=O)Nc3ccc(F)cc3)nc2c1 [CBK068765] | 85.7% |
| CC(=O)c1ccc(S(=O)(=O)N2CCCCC2C)cc1 (centres unmarked) [CBK069211] | 90% |
| c1ccc(CCn2nnnc2CN2CCN(c3ccccc3)CC2)cc1 [CBK069271] | 95.2% |
| COc1ccc(-c2nnc(SCC(=O)c3ccccc3)o2)cc1 [CBK069390] | 100% |
| CCOC(=O)c1ccc(S(=O)(=O)N2CCCCC2)cc1 [CBK069738] | 106% |
| COc1ccc(Cl)cc1NC(=O)C1CCCN1S(=O)(=O)c1ccc(F)cc1 (centres unmarked) [CBK069866] | 108% |
| O=C(Cc1ccccc1)N1CCC(c2nc3ccccc3s2)CC1 [CBK070145] | 92.6% |
| CC(C)C1OC(NCc2ccc(Cl)cc2)=NC1=O (centres unmarked) [CBK070352] | 94.9% |
| CC(C)C1OC(NC2CC(C)(C)NC(C)(C)C2)=NC1=O (centres unmarked) [CBK070360T] | 97.1% |

| Structure (SMILES) | viability at 28.5 h, 10 µM |
| --- | --- |
| COC(=O)c1ccc(S(=O)(=O)N2CCC(C)CC2)cc1 [CBK070414] | 98.1% |
| O=C(CSc1nnc(-c2ccncc2)o1)c1ccccc1 [CBK070562] | 87.5% |
| CCNC(=O)Nc1ncc(-c2ccccc2)c2cccnc12 [CBK070624] | 95.3% |
| CCNC(=O)Nc1ncc(-c2ccc(C(C)(C)C)cc2)c2cccnc12 [CBK070632] | 98.6% |
| CCNC(=O)Nc1ncc(-c2cc(OC)c(OC)c(OC)c2)c2cccnc12 [CBK070635] | 83.2% |
| CCNC(=O)Nc1ncc(-c2ccc(Oc3ccccc3)cc2)c2cccnc12 [CBK070636] | 104% |
| CCNC(=O)Nc1cc2cccnc2nc1-c1cc(F)cc(F)c1 [CBK070638] | 97% |
| CCNC(=O)Nc1cc2cccnc2nc1-c1cccc(C(F)(F)F)c1 [CBK070645] | 94.1% |
| CCNC(=O)Nc1ccc2ccc(-c3cccnc3)nc2n1 [CBK070652] | 85% |
| CCNC(=O)Nc1ccc2ccc(-c3ccc(SC)cc3)nc2n1 [CBK070656] | 90.9% |
| CCNC(=O)Nc1ccc2c(-c3ccc4c(c3)CCO4)ccnc2n1 [CBK070673] | 96.2% |
| CCNC(=O)Nc1ccc2c(-c3cccc(C(F)(F)F)c3)ccnc2n1 [CBK070678] | 93.7% |
| CCNC(=O)Nc1ncc(-c2ccc(OC(F)(F)F)cc2)c2cccnc12 [CBK070690] | 94% |
| CCNC(=O)Nc1cc2cccnc2nc1-c1ccc2c(c1)OCCCO2 [CBK070695] | 97.1% |
| CCNC(=O)Nc1ccc2ccc(-c3ccsc3)nc2n1 [CBK070699] | 73.5% |
| CN1CCN(c2ccc3ccn(S(=O)(=O)c4ccc([N+](=O)[O-])cc4)c3n2)CC1 [CBK070757C] | 104% |
| CN1CCN(CCC(=O)Nc2cccc(Cl)c2)CC1 [CBK070793C] | 108% |
| O=C(CSCc1nc2ccccc2c(=O)n1-c1ccccc1Cl)Nc1ccccc1 [CBK070895] | 95.2% |
| COc1cccc(NC(=O)CCS(=O)(=O)c2cccs2)c1 [CBK071069] | 100% |
| Cc1c(Br)c(C(F)(F)F)nn1CC(=O)N1CCCC1 [CBK071473] | 92.9% |
| CCc1ccc(CNC(=O)c2ccc3c(c2)NC(=O)C(N2CCOCC2)S3)cc1 (centres unmarked) [CBK071737] | 93.2% |
| CCCCNC(=O)c1ccc2c(c1)NC(=O)C(N1CCCC1)S2 (centres unmarked) [CBK071762] | 98.4% |
| COC(=O)Cn1cnc2sc(C(=O)Nc3ccccc3OC)c(C)c2c1=O [CBK071808] | 109% |

| Structure (SMILES) | viability at 28.5 h, 10 µM |
| --- | --- |
| CCCn1cnc2sc(C(=O)Nc3ccc(C)cc3C)c(C)c2c1=O [CBK071815] | 84.6% |
| COCCNC(=O)c1sc2ncn(CC(=O)Nc3ccccc3OC)c(=O)c2c1C [CBK071846] | 88.7% |
| CCOCCn1cnc2sc(C(=O)Nc3cccc(Cl)c3)c(C)c2c1=O [CBK071854] | 91.8% |
| Cc1cc2c(=O)n(CC(=O)NCc3ccco3)cnc2s1 [CBK071898] | 91.2% |
| COCCCNC(=O)Cn1cnc2sc(C)cc2c1=O [CBK071899] | 102% |
| CCOc1ccc(C(=O)Nc2nc(-c3ccc(F)cc3)cs2)cc1 [CBK072020] | 91% |
| O=C(Nc1nc2ccccc2s1)c1cc([N+](=O)[O-])ccc1Cl [CBK072428] | 85.9% |
| O=C(c1cccnc1)N1CCN(C(=O)c2ccco2)CC1 [CBK072684] | 94.3% |
| Fc1cccc(Nc2nc(-c3ccncc3)nc3ccccc23)c1 [CBK072732] | 89.5% |
| CCOc1ccc(Nc2ncnc3c2cnn3Cc2ccccc2)cc1 [CBK072752] | 97.8% |
| Cc1cccc(Nc2ncnc3ccccc23)c1 [CBK072827] | 114% |
| Cc1cc(C)c(OCC(=O)Nc2cc(-c3nc4ncccc4o3)ccc2C)c(Cl)c1 [CBK072887] | 92.7% |
| Cc1cc(NC(=O)c2ccc3c(c2)C(=O)N(CC2CCCO2)C3=O)no1 (centres unmarked) [CBK072998] | 90.2% |
| Cc1cccc(C(=O)Nc2ccc3oc(-c4cccnc4)nc3c2)c1 [CBK073161] | 82.7% |
| CCCc1c(O)nc(SCC(=O)NCc2ccco2)[nH]c1=O [CBK073278] | 95.2% |
| CCCCc1c(O)nc(SCC(=O)NCC2CCCO2)[nH]c1=O (centres unmarked) [CBK073281] | 97.6% |
| C=CCNC(=O)CSc1nc(O)cc(=O)[nH]1 [CBK073298] | 104% |
| C=CCc1c(O)nc(SCC(=O)N2CCOCC2)[nH]c1=O [CBK073301] | 91.8% |
| O=C(O)CC(NS(=O)(=O)c1cccc2nsnc12)C(=O)O (centres unmarked) [CBK073316] | 112% |
| C=CCOC(=O)C1=C(C)N=C2SCCC(=O)N2C1c1ccc(SC)cc1 (centres unmarked) [CBK073405] | 93.5% |
| COc1ccc(C)cc1S(=O)(=O)Nc1cc(N2CCN(C(C)C)CC2)c2occc2c1 [CBK073625C] | 92% |
| CC(C)C(=O)Nc1cc2cccnc2nc1-c1ccc(N(C)C)cc1 [CBK073650] | 90.6% |
| CC(C)C(=O)Nc1cc2cccnc2nc1-c1cccc(C(F)(F)F)c1 [CBK073657] | 93.7% |

| Structure (SMILES) | viability at 28.5 h, 10 µM |
| --- | --- |
| COc1ccc(C(C)C)cc1-c1nc2ncccc2cc1NC(=O)C(C)C [CBK073659] | 87.8% |
| COc1cc(F)ccc1-c1ccc2ccc(NC(=O)C(C)C)nc2n1 [CBK073666] | 87.1% |
| CCCCc1ccc(-c2ccc3ccc(NC(=O)C(C)C)nc3n2)cc1 [CBK073668] | 93% |
| CC(C)C(=O)Nc1ccc2ccc(-c3ccc(C(C)(C)C)cc3)nc2n1 [CBK073669] | 106% |
| CC(C)C(=O)Nc1ccc2c(-c3ccccc3)ccnc2n1 [CBK073671] | 101% |
| CC(C)C(=O)Nc1ccc2c(-c3ccc4c(c3)CCO4)ccnc2n1 [CBK073672] | 87.7% |
| CC(C)C(=O)Nc1ccc2c(-c3ccc4c(c3)OCCCO4)ccnc2n1 [CBK073675] | 96.7% |
| Oc1cc2cccnc2nc1-c1ccc2c(c1)CCO2 [CBK073698] | 76% |
| COc1ccc(-c2nc3ncccc3cc2O)cc1C [CBK073700] | 70.1% |
| CCCCc1ccc(-c2nc3ncccc3cc2O)cc1 [CBK073702] | 91.3% |
| Oc1cc2cccnc2nc1-c1ccc(OCc2ccccc2)c(F)c1 [CBK073708] | 91.2% |
| O=c1ccc2ccc(-c3ccsc3)nc2[nH]1 [CBK073710] | 97% |
| CC(C)(C)c1ccc(-c2ccc3ccc(=O)[nH]c3n2)cc1 [CBK073716] | 96.5% |
| CS(=O)(=O)c1ccc(-c2ccc3ccc(=O)[nH]c3n2)cc1 [CBK073719] | 86.7% |
| COc1cc(-c2ccc3ccc(=O)[nH]c3n2)cc(OC)c1OC [CBK073721] | 98.8% |
| O=c1ccc2ccc(-c3cccc(OCc4ccccc4)c3)nc2[nH]1 [CBK073722] | 95.9% |
| COc1ccc(-c2ccnc3[nH]c(=O)ccc23)cc1C [CBK073726] | 110% |
| O=c1ccc2c(-c3cccc(C(F)(F)F)c3)ccnc2[nH]1 [CBK073733] | 90.5% |
| COc1ccc(C(C)C)cc1-c1ccnc2[nH]c(=O)ccc12 [CBK073735] | 102% |
| COc1ccc([C@@]23CC[C@@H](NC(=O)Nc4ccc5c(c4)OC(F)(F)O5)C[C@@H]2N(C)CC3)cc1OC [CBK073743T] | 88.8% |
| CCNc1cc2ccccc2c(-c2cc(C(C)C)ccc2OC)n1 [CBK073777] | 110% |
| COc1ccc(C(C)C)cc1-c1nc(NS(C)(=O)=O)cc2ccccc12 [CBK073779] | 94.2% |
| CC(C)C(=O)Nc1cc2ccccc2c(-c2ccc(OCc3ccccc3)c(F)c2)n1 [CBK073783] | 89.8% |
